# According to ChEMBL document CHEMBL1140373, “Azepanone-based inhibitors of human cathepsin L” (J Med Chem, 2005):
# Residues, ends and D or L forms follow the SMILES beside them. *: point of attachment. Cbz = O=C(OCc1ccccc1)*
# How the values were obtained:
# [1] = biological target: Cathepsin B (Homo sapiens, UniProt P07858); experiment: Apparent inhibitory constant against human cathepsin B; settings: read-out: Ki app
# [2] = biological target: T1, Cathepsin K (Homo sapiens, UniProt P43235); experiment: Apparent inhibitory constant against human cathepsin K; settings: read-out: Ki app
# T1 sequence (P43235 whole entry): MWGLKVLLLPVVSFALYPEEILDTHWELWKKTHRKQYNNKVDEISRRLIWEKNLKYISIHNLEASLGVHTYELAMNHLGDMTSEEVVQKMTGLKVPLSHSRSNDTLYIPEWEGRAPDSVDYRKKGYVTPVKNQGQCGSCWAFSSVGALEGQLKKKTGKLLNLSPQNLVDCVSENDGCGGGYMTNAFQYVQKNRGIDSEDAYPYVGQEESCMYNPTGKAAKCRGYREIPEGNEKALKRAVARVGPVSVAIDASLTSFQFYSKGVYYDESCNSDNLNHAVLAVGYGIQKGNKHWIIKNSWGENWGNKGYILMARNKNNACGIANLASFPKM
# [3] = biological target: Procathepsin L (Homo sapiens, UniProt P07711); experiment: Apparent inhibitory constant against human cathepsin L; settings: read-out: Ki app
# Sequence of Procathepsin L (P07711 whole entry): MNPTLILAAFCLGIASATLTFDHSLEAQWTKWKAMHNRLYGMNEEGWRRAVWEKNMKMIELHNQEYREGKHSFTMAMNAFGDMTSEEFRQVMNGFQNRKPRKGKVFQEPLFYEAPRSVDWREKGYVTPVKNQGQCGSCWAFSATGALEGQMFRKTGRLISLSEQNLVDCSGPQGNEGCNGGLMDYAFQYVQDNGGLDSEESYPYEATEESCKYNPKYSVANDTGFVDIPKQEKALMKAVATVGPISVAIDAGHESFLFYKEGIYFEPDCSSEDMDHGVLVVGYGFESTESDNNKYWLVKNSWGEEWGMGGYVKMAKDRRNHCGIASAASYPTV
# [4] = biological target: Cathepsin S (Homo sapiens, UniProt P25774)
# Sequence of Cathepsin S (P25774 whole entry): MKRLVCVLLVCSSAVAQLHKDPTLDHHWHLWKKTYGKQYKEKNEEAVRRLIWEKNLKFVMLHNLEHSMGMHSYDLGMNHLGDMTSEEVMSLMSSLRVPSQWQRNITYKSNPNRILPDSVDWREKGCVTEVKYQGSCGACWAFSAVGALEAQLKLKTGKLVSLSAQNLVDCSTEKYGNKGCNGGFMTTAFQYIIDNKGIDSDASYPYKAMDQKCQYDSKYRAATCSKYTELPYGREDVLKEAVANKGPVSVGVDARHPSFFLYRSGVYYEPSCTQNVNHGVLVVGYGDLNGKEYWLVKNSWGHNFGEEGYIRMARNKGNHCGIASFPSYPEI
# Description: Apparent inhibitory constant against human cathepsin S
Ki [1] [nM],Ki [2] [nM],Ki [3] [nM],Ki [4] [nM],Structure (SMILES)
150,> 10000,0.43,15.6,O=C(N[C@@H](Cc1ccc2ccccc2c1)C(=O)N[C@H]1CCCN(S(=O)(=O)c2ccccn2)CC1=O)c1cccc2ccccc12
740,0.89,5,27,CC(C)C[C@H](NC(=O)c1ccc2ccccc2n1)C(=O)N[C@H]1CCCN(S(=O)(=O)c2ccccn2)CC1=O
24,295,0.57,3.1,O=C(N[C@@H](Cc1ccc2ccccc2c1)C(=O)N[C@H]1CCCN(S(=O)(=O)c2ccccn2)CC1=O)c1cc2ccccc2o1
–,0.74,0.47,0.26,O=C[C@H](Cc1ccc(O)cc1)NC(=O)[C@H](Cc1ccccc1)NC(=O)OCc1ccccc1 (Cbz-Phe-Tyr-aldehyde)
> 1000,52,8.2,41,CC(C)C[C@H](NC(=O)c1cccc2cccnc12)C(=O)N[C@H]1CCCN(S(=O)(=O)c2ccccn2)CC1=O
–,12,1.4,5.7,CC(C)C[C@H](NC(=O)c1cccc2ccccc12)C(=O)N[C@H]1CCCN(S(=O)(=O)c2ccccn2)CC1=O
193,10.5,1.7,8.9,O=C(N[C@@H](Cc1ccccc1)C(=O)N[C@H]1CCCN(S(=O)(=O)c2ccccn2)CC1=O)c1cc2ccccc2o1
